According to US8071763B2, “Methods for treatment of nocturia” (Daiichi Sankyo Company, Limited, priority 2002, dated 2011):
Marks after values point to notes of the source that are not given here.

Test system: patients with nocturia
Assay: Non-randomized trial treatment with loxoprofen in patients with nocturia; voids/night outcome assessed as excellent, improved, unchanged or worsened
Format: in vivo, human
Experimental: One hundred forty one patients (135 men) aged 49 to 89 (mean 70.5) years with LUTS and =2 voids per night were enrolled in the study. Their main diseases were BPH (n=93), prostate cancer (n=24) and neurogenic bladder (NB) (n=13); 11 had other diseases. […] Patients who had asthma, gastrointestinal disorders, renal dysfunction and allergies to loxoprofen were excluded. Patients took a single 60 mg loxoprofen tablet prior to sleeping at night for 4 to 14 days initially concurrently with their treatments for their main diseases. Numbers of voids/night as reported by each patient were evaluated and treatment outcome was assessed as either excellent (nocturia disappeared or decreased by =2 voids/night), improved (nocturia decreased by 1 void/night), unchanged or worsened (nocturia increased).

[1] = 60 mg prior to sleeping, 108 patients who did not respond to anticholinergic drugs
[2] = 60 mg prior to sleeping, Antidiuretic hormone non-responder, 3 patients
[3] = 60 mg prior to sleeping, Antidiuretic hormone responder, 6 patients
[4] = 60 mg prior to sleeping, BPH, 93 patients
[5] = 60 mg prior to sleeping, BPH, 93 patients, listed as Loxoprofen
[6] = 60 mg prior to sleeping, Female, 6
[7] = 60 mg prior to sleeping, Insomnia, 20 patients
[8] = 60 mg prior to sleeping, Male, 135
[9] = 60 mg prior to sleeping, Neurogenic bladder, 13 patients
[10] = 60 mg prior to sleeping, Neurogenic bladder, 13 patients, listed as Loxoprofen
[11] = 60 mg prior to sleeping, Nocturnal polyuria, 7 patients
[12] = 60 mg prior to sleeping, Post-TURP, 18 patients
[13] = 60 mg prior to sleeping, Post-thermotherapy, 19 patients
[14] = 60 mg prior to sleeping, Prostate cancer, 24 patients
[15] = 60 mg prior to sleeping, Prostate cancer, 24 patients, listed as Loxoprofen
[16] = 60 mg prior to sleeping, Prostate cancer, hormone therapy, 15 patients
[17] = 60 mg prior to sleeping, Prostate cancer, post-prostatectomy (radical), 5 patients
[18] = 60 mg prior to sleeping, Prostate cancer, post-radiation, 4 patients
[19] = 60 mg prior to sleeping, Prostatodynia, 5 patients
[20] = 60 mg prior to sleeping, Urinary frequency with UUI, 10 patients
[21] = 60 mg prior to sleeping, Urinary frequency without UUI, 9 patients
[22] = 60 mg prior to sleeping, aged 49 to 59 years
[23] = 60 mg prior to sleeping, aged 60 to 69 years
[24] = 60 mg prior to sleeping, aged 70 to 79 years
[25] = 60 mg prior to sleeping, aged 80 to 86 years
[26] = 60 mg prior to sleeping, frequency at baseline 2 and 2-3, 56 patients
[27] = 60 mg prior to sleeping, frequency at baseline 3-4, 59 patients
[28] = 60 mg prior to sleeping, frequency at baseline 4-5, 15 patients
[29] = 60 mg prior to sleeping, frequency at baseline >5, 11 patients
[30] = 60 mg prior to sleeping, non-responders to Anticholinergics, 32 patients
[31] = 60 mg prior to sleeping, non-responders to Hypnotics, 42 patients
[32] = 60 mg prior to sleeping, non-responders to TCA (tricyclic antidepressants), 76 patients

Effect on voiding power (patients with BOO): does not decrease voiding power
Structure (SMILES): CC(C(=O)O)c1ccc(CC2CCCC2=O)cc1 (centres unmarked) [loxoprofen, loxoprofen sodium]
Onset of changes in patients' symptoms (60 mg prior to sleeping): starting from the first night of therapy
Excellent responder rate (60 mg prior to sleeping, 85 patients with more frequent nocturia than 2 to 3 episodes at baseline): 46%
Excellent rate [1]: 44%
Improved rate [1]: 38%
Nocturia improved or disappeared, % of patients overall (60 mg prior to sleeping, 141 patients): 72%
Improved, % of patients [2]: (33%)
Improved, no. of patients [2]: 1
Unchanged, % of patients [2]: 67%
Unchanged, no. of patients [2]: 2
Excellent, % of patients [3]: (17%)
Excellent, no. of patients [3]: 1
Improved, % of patients [3]: (67%)
Improved, no. of patients [3]: 4
Unchanged, % of patients [3]: 17%
Unchanged, no. of patients [3]: 1
Excellent, % of patients [4]: (39%)
Excellent, no. of patients [4]: 36^
Improved, % of patients [4]: (34%)
Improved, no. of patients [4]: 32^
Unchanged, % of patients [4]: (23%)
Unchanged, no. of patients [4]: 21^
Worsened, % of patients [4]: (4%)
Worsened, no. of patients [4]: 4
Excellent, % of patients [5]: 39%
Improved, % of patients [5]: 34%
Excellent, % of patients [6]: (33%)
Excellent, no. of patients [6]: 2
Improved, % of patients [6]: (33%)
Improved, no. of patients [6]: 2
Unchanged, % of patients [6]: (33%)
Unchanged, no. of patients [6]: 2
Excellent, % of patients [7]: (35%)
Excellent, no. of patients [7]: 7^
Improved, % of patients [7]: (40%)
Improved, no. of patients [7]: 8^
Unchanged, % of patients [7]: (20%)
Unchanged, no. of patients [7]: 4^
Worsened, % of patients [7]: (5%)
Worsened, no. of patients [7]: 1
Excellent, % of patients (60 mg prior to sleeping, Insomnia, 20 patients, listed as Loxoprofen): 35%
Excellent, no. of patients (60 mg prior to sleeping, Interstitial cystitis, 2 patients): 2^¶
Excellent, % of patients [8]: (36%)
Excellent, no. of patients [8]: 49
Improved, % of patients [8]: (36%)
Improved, no. of patients [8]: 48
Unchanged, % of patients [8]: (24%)
Unchanged, no. of patients [8]: 32
Worsened, % of patients [8]: (4%)
Worsened, no. of patients [8]: 6
Excellent, % of patients [9]: (69%)
Excellent, no. of patients [9]: 9^‡
Improved, % of patients [9]: (8%)
Improved, no. of patients [9]: 1^¶
Unchanged, % of patients [9]: (15%)
Unchanged, no. of patients [9]: 2^¶
Worsened, % of patients [9]: (8%)
Worsened, no. of patients [9]: 1
Excellent, % of patients [10]: 69%
Improved, % of patients [10]: 8%
Excellent, % of patients [11]: (14%)
Excellent, no. of patients [11]: 1^
Improved, % of patients [11]: (71%)
Improved, no. of patients [11]: 5^
Unchanged, % of patients [11]: (14%)
Unchanged, no. of patients [11]: 1^
Excellent, % of patients (60 mg prior to sleeping, Nocturnal polyuria, 7 patients, listed as Loxoprofen): 14%
Excellent, no. of patients [12]: 8
Improved, % of patients [12]: (27%)
Improved, no. of patients [12]: 5
Unchanged, % of patients [12]: 22%
Unchanged, no. of patients [12]: 4
Worsened, % of patients [12]: 6%
Worsened, no. of patients [12]: 1
Excellent, no. of patients [13]: 8
Improved, % of patients [13]: (26%)
Improved, no. of patients [13]: 5
Unchanged, % of patients [13]: 32%
Unchanged, no. of patients [13]: 6
Excellent, % of patients [14]: (29%)
Excellent, no. of patients [14]: 7^
Improved, % of patients [14]: (33%)
Improved, no. of patients [14]: 8^
Unchanged, % of patients [14]: (33%)
Unchanged, no. of patients [14]: 8^
Worsened, % of patients [14]: (4%)
Worsened, no. of patients [14]: 1
Excellent, % of patients [15]: 29%
Improved, % of patients [15]: 33%
Excellent, no. of patients [16]: 5^
Improved, no. of patients [16]: 3^
Unchanged, no. of patients [16]: 6^
Worsened, no. of patients [16]: 1
Excellent, no. of patients [17]: 1^
Improved, no. of patients [17]: 2^
Unchanged, no. of patients [17]: 2^
Excellent, no. of patients [18]: 1^
Improved, no. of patients [18]: 3^
Excellent, % of patients [19]: (20%)
Excellent, no. of patients [19]: 1^
Improved, % of patients [19]: (40%)
Improved, no. of patients [19]: 2^
Unchanged, % of patients [19]: (20%)
Unchanged, no. of patients [19]: 1^
Worsened, % of patients [19]: (20%)
Worsened, no. of patients [19]: 1
Worsened, no. of patients (60 mg prior to sleeping, Total 141): 6
Excellent, % of patients [20]: (20%)
Excellent, no. of patients [20]: 2^
Improved, % of patients [20]: (50%)
Improved, no. of patients [20]: 5^†
Unchanged, % of patients [20]: (30%)
Unchanged, no. of patients [20]: 3^¶
Excellent, % of patients (60 mg prior to sleeping, Urinary frequency with UUI, 10 patients, listed as Loxoprofen): 20%
Excellent, % of patients [21]: (44%)
Excellent, no. of patients [21]: 4^¶
Improved, % of patients [21]: (22%)
Improved, no. of patients [21]: 2^
Unchanged, % of patients [21]: (22%)
Unchanged, no. of patients [21]: 2^¶
Worsened, % of patients [21]: (11%)
Worsened, no. of patients [21]: 1
Excellent, % of patients (60 mg prior to sleeping, Urinary frequency without UUI, 9 patients, listed as Loxoprofen): 44%
Excellent responses, % of patients [22]: 50%
Excellent responses, patients/group size [22]: 4/8
Excellent responses, % of patients [23]: 40%
Excellent responses, patients/group size [23]: 17/43
Excellent responses, % of patients [24]: 35%
Excellent responses, patients/group size [24]: 23/65
Excellent responses, % of patients [25]: 28%
Excellent responses, patients/group size [25]: 7/25
Excellent, % of patients [26]: (21%)
Excellent, no. of patients [26]: 12*^
Improved, % of patients [26]: (41%)
Improved, no. of patients [26]: 23^†
Unchanged, % of patients [26]: (34%)
Unchanged, no. of patients [26]: 19^†
Worsened, % of patients [26]: (4%)
Worsened, no. of patients [26]: 2
Excellent, % of patients (60 mg prior to sleeping, frequency at baseline 2 and 2-3, 56 patients, listed as Loxoprofen): 21%
Excellent, % of patients [27]: (47%)
Excellent, no. of patients [27]: 28^†
Improved, % of patients [27]: (31%)
Improved, no. of patients [27]: 18^†
Unchanged, % of patients [27]: (17%)
Unchanged, no. of patients [27]: 10^†
Worsened, % of patients [27]: (5%)
Worsened, no. of patients [27]: 3
Excellent, % of patients [28]: (40%)
Excellent, no. of patients [28]: 6^
Improved, % of patients [28]: (40%)
Improved, no. of patients [28]: 6^
Unchanged, % of patients [28]: (20%)
Unchanged, no. of patients [28]: 3^
Excellent, % of patients [29]: (45%)
Excellent, no. of patients [29]: 5^†
Improved, % of patients [29]: (27%)
Improved, no. of patients [29]: 3^
Unchanged, % of patients [29]: (18%)
Unchanged, no. of patients [29]: 2^
Worsened, % of patients [29]: (5%)
Worsened, no. of patients [29]: 1
Excellent, % of patients [30]: (44%)
Excellent, no. of patients [30]: 14
Improved, % of patients [30]: (38%)
Improved, no. of patients [30]: 12
Unchanged, % of patients [30]: 19%
Unchanged, no. of patients [30]: 6
Worsened, % of patients [30]: 3%
Worsened, no. of patients [30]: 1
Excellent, no. of patients [31]: 13
Improved, no. of patients [31]: 16
Unchanged, % of patients [31]: 26%
Unchanged, no. of patients [31]: 11
Worsened, % of patients [31]: 5%
Worsened, no. of patients [31]: 2
Excellent, % of patients [32]: (39%)
Excellent, no. of patients [32]: 30
Improved, % of patients [32]: (37%)
Improved, no. of patients [32]: 28
Unchanged, % of patients [32]: 22%
Unchanged, no. of patients [32]: 17
Worsened, % of patients [32]: 5%
Worsened, no. of patients [32]: 4
Excellent effects, patients (60 mg prior to sleeping, patients who previously responded or were refractory to antidiuretic hormone): one of nine patients
Side effects such as dry mouth, constipation and habituation (human, in vivo): does not produce side effects
Quality of life (patients whose nocturia improved): noticeable improvements in their quality of life
Time to first voiding (some patients of the unchanged group): delayed by several hours
